According to patent US20240158348A1, “HERBICIDAL CYCLIC AMIDES N-SUBSTITUTED WITH A HALOALKYLSULFONYLANILIDE GROUP” (FMC Corporation, priority 2021, published 2024):

Legend:
Type in all cases: in vivo
[1] = system: goosegrass (Eleusine indica); test: Test C preemergence, goosegrass; settings: 0 is no effect, 100 is complete control
Method in brief: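 Injury is given as a visual 0–100 rating, where 100 is complete control, made against untreated plants after 10 or 12 greenhouse days. Galium received a postemergence spray at the one- to two-leaf stage (2–10 cm tall). Corn, ragweed and goosegrass seeds in loam-sand blend received a directed preemergence soil spray; test chemicals were formulated in a surfactant-containing non-phytotoxic solvent.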

soybean (Glycine max) = test: Test C postemergence, soybean; settings: visual injury, 0 to 100 scale (0 no effect, 100 complete control)
[2] = system: oat, wild (wild oat, Avena fatua); test: Test C postemergence, wild oat; settings: visual injury, 0 to 100 scale (0 no effect, 100 complete control)
[3] = system: foxtail, giant (giant foxtail, Setaria faberi); test: Test C postemergence, giant foxtail; settings: visual injury, 0 to 100 scale (0 no effect, 100 complete control)
[4] = system: blackgrass (Alopecurus myosuroides); test: Test C postemergence, blackgrass; settings: visual injury, 0 to 100 scale (0 no effect, 100 complete control)
Method in brief: (§1)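 Greenhouse pot test. Compounds in a non-phytotoxic solvent with surfactant were applied to a loam–sand soil mix either preemergence as a directed spray or postemergence to plants at the one- to two-leaf stage; 0–100 visual ratings followed after 10 or 12 days.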

[5] = system: ducksalad (Heteranthera limosa); test: Test D flooded paddy test, ducksalad; design: key: 0 = no effect, 100 = complete control; settings: 250 g ai/ha, Flood; applied to paddy water at 2-leaf stage; visual rating after 13 days; scale 0 (no effect) to 100 (complete control)
Method in brief: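 Visual response scores run 0 (no effect) to 100 (complete control), judged against controls 13 days after treatment. Compounds were added to paddy water 3 cm deep over soil, around plants at the 2-leaf stage kept in a greenhouse.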

[6] = system: pigweed, palmer (palmer amaranth, Amaranthus palmeri); test: Test C postemergence, palmer amaranth; settings: visual injury, 0 to 100 scale (0 no effect, 100 complete control)
Method in brief: as §1

[7] = system: galium (catchweed bedstraw, Galium aparine); test: Test C postemergence, galium; settings: visual injury, 0 to 100 scale (0 no effect, 100 complete control)

Compound: Cc1c(N2CCC(OC3CC3)C2=O)cc(N(C(=O)OCC(C)C)S(=O)(=O)C(F)(F)F)c(C)c1C (stereo not drawn) [Compound 50]
- Plant response rating (0 to 100 scale), Goosegrass ([1]; 31 g ai/ha Preemergence): 90
- Plant response rating (0 to 100 scale), Goosegrass ([1]; 125 g ai/ha Preemergence): 100
- Soybean plant response rating (soybean (Glycine max); 31 g ai/ha Postemergence): 60
- Soybean plant response rating (soybean (Glycine max); 125 g ai/ha Postemergence): 80
- Oat, Wild plant response rating ([2]; 31 g ai/ha Postemergence): 20
- Oat, Wild plant response rating ([2]; 125 g ai/ha Postemergence): 50
- Foxtail, Giant plant response rating ([3]; 31 g ai/ha Postemergence): 50
- Foxtail, Giant plant response rating ([3]; 125 g ai/ha Postemergence): 80
- Blackgrass plant response rating ([4]; 31 g ai/ha Postemergence): 10
- Blackgrass plant response rating ([4]; 125 g ai/ha Postemergence): 40
- Plant response rating, Ducksalad [5]: 90
- Pigweed, Palmer plant response rating ([6]; 31 g ai/ha Postemergence): 20
- Pigweed, Palmer plant response rating ([6]; 125 g ai/ha Postemergence): 60
- Galium plant response rating ([7]; 31 g ai/ha Postemergence): 60
- Galium plant response rating ([7]; 125 g ai/ha Postemergence): 100
